Values joined by “and” are separate entries in the source; they are usually repeats but may differ in a detail not shown here. Identical values can stand only once.
Test system: Brassica plants comprising mutant AHAS alleles
Assay: Field trial, pre-planting treatment (0, 10, 20, 30 g a.i./ha), two locations in Canada: ERG, EST1, EST2, PPTOX, VIG1, VIG2, VIG3 scores
Assay type: in vivo, Brassica napus
Source text: Tests were set up and conducted to asses the growth and performance of plants comprising AHAS full knock-out alleles, and to further analyze the correlation between the presence of full knockout and missense AHAS genes in Brassica plants and plant growth and herbicide tolerance of the Brassica plants in the field. To this end, the Brassica plants identified in Example 1 and 2 were backcrossed two times with an elite parent line, and subsequently selfed twice to obtain homozygous plants (BC2S2). Plants were grown as row plots in a split plot design with three replicates (main plots=herbicide treatments, subplots=genotypes) at two locations in Canada. Treatment pre-planting was carried out on the soil about two days before sowing with a dose of 0 (treatment A), 10 (treatment B), 20 (treatment C) or 30 (treatment D) g a.i./ha of thiencarbazone methyl. Herbicide tolerance was measured by scoring for different parameters. The parameter emergence (ERG) was scored at the cotyledon stage on a scale 1-9, where 1 means late emergence and 9 means early emergence. Establishment was scored 14 days after sowing (EST1) and 21 days after sowing (EST2). Scores were from 1 to 9, where 1 is the worst establishment (least plants that emerged), and 9 is the best establishment (most plants emerged). Phytotoxicity (PPTOX) was determined after establishment. Plants were evaluated on a scale of 1 to 9, where 1=completely yellowing, 5=50% of plant is yellow and 9=no yellowing. The vigor scores (see above) were determined at 1-2 leaf stage (VIG1), 7 days after VIG1 (VIG2) and 14 days after VIG1 (VIG3). The average values (Av) and standard deviations (SD) of the scores for the different parameters are represented in Table 7a-g.
Further, the contribution of the knock-out allele to herbicide tolerance conferred by the missense allele was calculated. First, the scores were corrected for a possible effect of the growth per se, independent of herbicide treatment. To this end, the scores for treatments B, C and D were divided by the scores for treatment A for the same genotype and for the same parameter (corrected herbicide tolerance scores). Next, the effect of the knock-out allele to these corrected herbicide tolerance scores obtained by the missense allele was calculated. Therefore, the corrected herbicide tolerance scores for the missense—knock-out allele combination was divided by the corrected herbicide tolerance scores for the missense allele—wild-type combination. In case the knock-out allele has no effect on herbicide tolerance conferred by the missense allele, this ratio should be 1. In case the knock-out allele positively contributes to the herbicide tolerance conferred by the missense allele, this ratio should be higher than 1. The results for the contribution of the knock-out allele to herbicide tolerance conferred by the missense allele as calculated above are shown in table 8.

[1] = AHAS1 HETO108/AHAS3 HETO104, 30 g a.i./ha pre-planting (D), Location A
[2] = AHAS1 HETO108/AHAS3 HETO104, 30 g a.i./ha pre-planting (D), Location B
[3] = AHAS1 HETO108/AHAS3 HETO111, 10 g a.i./ha pre-planting (B), Location A
[4] = AHAS1 HETO108/AHAS3 HETO111, 10 g a.i./ha pre-planting (B), Location B
[5] = AHAS1 HETO108/AHAS3 HETO111, 20 g a.i./ha pre-planting (C), Location A
[6] = AHAS1 HETO108/AHAS3 HETO111, 20 g a.i./ha pre-planting (C), Location B
[7] = AHAS1 HETO108/AHAS3 HETO111, 30 g a.i./ha pre-planting (D), Location A
[8] = AHAS1 HETO108/AHAS3 HETO111, 30 g a.i./ha pre-planting (D), Location B
[9] = AHAS1 HETO108/AHAS3 WT, 10 g a.i./ha pre-planting (B), Location A
[10] = AHAS1 HETO108/AHAS3 WT, 10 g a.i./ha pre-planting (B), Location B
[11] = AHAS1 HETO108/AHAS3 WT, 20 g a.i./ha pre-planting (C), Location A
[12] = AHAS1 HETO108/AHAS3 WT, 20 g a.i./ha pre-planting (C), Location B
[13] = AHAS1 HETO108/AHAS3 WT, 30 g a.i./ha pre-planting (D), Location A
[14] = AHAS1 HETO108/AHAS3 WT, 30 g a.i./ha pre-planting (D), Location B
[15] = AHAS1 HETO112, AHAS3 HETO111, treatment B 10 g a.i./ha pre-planting, Location A
[16] = AHAS1 HETO112, AHAS3 HETO111, treatment B 10 g a.i./ha pre-planting, Location B
[17] = AHAS1 HETO112, AHAS3 HETO111, treatment C 20 g a.i./ha pre-planting, Location A
[18] = AHAS1 HETO112, AHAS3 HETO111, treatment C 20 g a.i./ha pre-planting, Location B
[19] = AHAS1 HETO112, AHAS3 HETO111, treatment D 30 g a.i./ha pre-planting, Location A
[20] = AHAS1 HETO112, AHAS3 HETO111, treatment D 30 g a.i./ha pre-planting, Location B
[21] = AHAS1 HETO112, AHAS3 WT, treatment B 10 g a.i./ha pre-planting, Location A

In the case of `COC(=O)c1csc(C)c1S(=O)(=O)NC(=O)n1nc(OC)n(C)c1=O` [thiencarbazone-methyl, methyl 4-[(4,5-dihydro-3-methoxy-4-methyl-5-oxo-1H-1,2,4-triazol-1-yl)carbonylsulfamoyl]-5-methylthiophene-3-carboxylate], the “vigor2 (VIG2) score, Av” value (AHAS1 HETO108/AHAS3 HETO104, 20 g a.i./ha pre-planting (C), Location B) is reported as 6.33, the “establishment (EST2) score, Av” value [1] is reported as 5.33 and the “phytotoxicity (PPTOX) score, Av” value [1] is reported as 5.00. For the same compound, the “vigor2 (VIG2) score, Av” value [1] was 5.67, the “establishment (EST2) score, Av” value [2] was 5.33 and the “phytotoxicity (PPTOX) score, Av” value [2] was 6.33. The “vigor2 (VIG2) score, Av” value [2] was 6.00, the “establishment (EST2) score, Av” value [3] was 6.33 and the “vigor1 (VIG1) score, Av” value [3] was 6.33. The “vigor2 (VIG2) score, Av” value [3] was 7.33, the “establishment (EST2) score, Av” value [4] was 6.00 and the “vigor2 (VIG2) score, Av” value [4] was 7.00. The “establishment (EST2) score, Av” value [5] was 5.67, the “phytotoxicity (PPTOX) score, Av” value [5] was 5.00 and the “vigor2 (VIG2) score, Av” value [5] was 6.33. The “establishment (EST2) score, Av” value [6] was 5.33, the “vigor1 (VIG1) score, Av” value [6] was 5.00 and the “vigor2 (VIG2) score, Av” value [6] was 6.33. The “establishment (EST2) score, Av” value [7] was 6.00, the “phytotoxicity (PPTOX) score, Av” value [7] was 6.00 and the “vigor1 (VIG1) score, Av” value [7] was 6.00. The “vigor2 (VIG2) score, Av” value [7] was 7.00, the “establishment (EST2) score, Av” value [8] was 4.00 and the “vigor2 (VIG2) score, Av” value [8] was 4.33. For the same compound, the “establishment (EST2) score, Av” value [9] was 6.67 and 6.33, the “phytotoxicity (PPTOX) score, Av” value [9] was 7.00 and the “vigor1 (VIG1) score, Av” value [9] was 7.00 and 6.00. The “vigor2 (VIG2) score, Av” value [9] was 8.33 and 7.67, the “establishment (EST2) score, Av” value [10] was 5.00 and 5.33 and the “phytotoxicity (PPTOX) score, Av” value [10] was 6.33 and 5.00. The “vigor1 (VIG1) score, Av” value [10] was 6.00, the “vigor2 (VIG2) score, Av” value [10] was 5.33 and 5.67 and the “establishment (EST2) score, Av” value [11] was 5.00 and 5.67. For the same compound, the “phytotoxicity (PPTOX) score, Av” value [11] was 5.00, the “vigor1 (VIG1) score, Av” value [11] was 6.00 and the “vigor2 (VIG2) score, Av” value [11] was 6.67. For the same compound, the “phytotoxicity (PPTOX) score, Av” value [12] was 7.00, the “vigor1 (VIG1) score, Av” value [12] was 5.00 and the “vigor2 (VIG2) score, Av” value [12] was 6.33 and 7.67. The “establishment (EST2) score, Av” value [13] was 5.67 and 5.33, the “phytotoxicity (PPTOX) score, Av” value [13] was 5.00 and the “vigor2 (VIG2) score, Av” value [13] was 6.33. For the same compound, the “phytotoxicity (PPTOX) score, Av” value [14] was 5.00, the “vigor1 (VIG1) score, Av” value [14] was 5.00 and the “vigor2 (VIG2) score, Av” value [14] was 5.00 and 5.33. For the same compound, the “emergence (ERG) score Av” value [15] was 4.33, the “establishment (EST1) score Av, 14 days after sowing” value (“establishment (EST1) score Av” for short) [15] was 5.00 and the “emergence (ERG) score Av” value [16] was 4.33. For the same compound, the “establishment (EST1) score Av” value [16] was 5.67, the “emergence (ERG) score Av” value [17] was 5.00 and the “establishment (EST1) score Av” value [17] was 5.33. The “emergence (ERG) score Av” value [18] was 4.00, the “establishment (EST1) score Av” value [18] was 5.00 and the “emergence (ERG) score Av” value [19] was 5.33. The “establishment (EST1) score Av” value [19] was 5.67, the “emergence (ERG) score Av” value [20] was 3.00 and the “establishment (EST1) score Av” value [20] was 3.67. For the same compound, the “emergence (ERG) score Av” value [21] was 1.67, the “establishment (EST1) score Av” value [21] was 1.67 and the “emergence (ERG) score Av” value (AHAS1 HETO112, AHAS3 WT, treatment B 10 g a.i./ha pre-planting, Location B) was 1.67.
